From ChEMBL document CHEMBL1201862, “PubChem BioAssay data set” (2004)
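These data come from cells grown in 96-well plates and exposed to compound for 48 hours at five concentrations. GI50 is the concentration that inhibits growth by half.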 Active and inactive are the calls of the source. No stated cut-off is given here; in the data, active = GI50 up to about 1.1 µM and inactive = higher.

Experiments:
Experiment in all cases: NCI tumour cell line growth inhibition, 48 h
CAKI-1 = test system: CAKI-1
SK-MEL-2 = test system: SK-MEL-2
Hs-578T = test system: Hs-578T
K562 = test system: K562
SF-295 = test system: SF-295
BT-549 = test system: BT-549
SR = test system: SR
SK-MEL-28 = test system: SK-MEL-28
IGROV-1 = test system: IGROV-1
NCI-H460 = test system: NCI-H460
OVCAR-5 = test system: OVCAR-5
TK-10 = test system: TK-10
SN12C = test system: SN12C
HT-29 = test system: HT-29
U-251 = test system: U-251
KM12 = test system: KM12
UACC-62 = test system: UACC-62
ACHN = test system: ACHN
HOP-92 = test system: HOP-92

Compound | GI50 (CAKI-1) | GI50 (SK-MEL-2) | GI50 (Hs-578T) | GI50 (K562) | GI50 (SF-295) | GI50 (BT-549) | GI50 (SR) | GI50 (SK-MEL-28) | GI50 (IGROV-1) | GI50 (NCI-H460) | GI50 (OVCAR-5) | GI50 (TK-10) | GI50 (SN12C) | GI50 (HT-29) | GI50 (U-251) | GI50 (KM12) | GI50 (UACC-62) | GI50 (ACHN) | GI50 (HOP-92)
COP(=O)(C(/C=C/c1ccccc1)OC(C)=O)[C@@H]1CCCC[C@H]1N(CC(C)(C)C)C(C)=O (stereo partly specified) | 28 µM (inactive) | 15.4 µM (inactive) | 12.8 µM (inactive) | 22.4 µM (inactive) | 16.3 µM (inactive) | 16.8 µM (inactive) | 15 µM (inactive) | 20.4 µM (inactive) | 10.6 µM (inactive) | 13.4 µM (inactive) | 19.2 µM (inactive) | 20.2 µM (inactive) | 14.8 µM (inactive) | 10.2 µM (inactive) | 15.8 µM (inactive) | 26.2 µM (inactive) | 14 µM (inactive) | 16.3 µM (inactive) | 
CC[C@H](NC(=O)OC(C)(C)C)C(=O)NCP(=O)(OCc1ccc([N+](=O)[O-])cc1)OCc1ccc([N+](=O)[O-])cc1 | 43.2 µM (inactive) | 50.9 µM (inactive) | 37.2 µM (inactive) |  | 13.7 µM (inactive) | 31.7 µM (inactive) | 26.9 µM (inactive) | 28.4 µM (inactive) | 38.5 µM (inactive) | 27.8 µM (inactive) | 48.2 µM (inactive) | 30.6 µM (inactive) | 29.1 µM (inactive) | 17.7 µM (inactive) | 21.6 µM (inactive) | 26.8 µM (inactive) | 18.3 µM (inactive) | 23 µM (inactive) | 31.5 µM (inactive)
NC(Cc1ccccc1)c1nccs1 (stereo unspecified) | > 100 µM (inactive) | > 100 µM (inactive) | > 100 µM (inactive) | > 100 µM (inactive) | > 100 µM (inactive) | > 100 µM (inactive) | > 100 µM (inactive) | > 100 µM (inactive) | > 100 µM (inactive) |  | > 100 µM (inactive) | > 100 µM (inactive) | > 100 µM (inactive) | > 100 µM (inactive) | > 100 µM (inactive) | > 100 µM (inactive) | > 100 µM (inactive) | > 100 µM (inactive) | > 100 µM (inactive)
COc1ccc(-c2c(C(=O)Nc3ccccc3)c(-c3ccccc3)n(C3OC(CO)C(O)C(O)C3O)c(=S)c2C#N)cc1 (stereo unspecified) | > 100 µM (inactive) |  | > 100 µM (inactive) | > 100 µM (inactive) | > 100 µM (inactive) | 0.719 µM (active) | > 100 µM (inactive) | > 100 µM (inactive) | > 100 µM (inactive) | > 100 µM (inactive) | > 100 µM (inactive) |  | > 100 µM (inactive) | > 100 µM (inactive) | > 100 µM (inactive) | > 100 µM (inactive) | > 100 µM (inactive) | > 100 µM (inactive) | > 100 µM (inactive)
Cc1cc2cc3c(Cl)c(CCCl)c(C)nc3cc2c(Cl)c1CCCl |  |  | 9.84 µM (inactive) | 17.4 µM (inactive) | 17.2 µM (inactive) | 19.9 µM (inactive) | 11.3 µM (inactive) | 18 µM (inactive) | 26.2 µM (inactive) | 14.7 µM (inactive) |  | 23.6 µM (inactive) |  | 18.5 µM (inactive) | 23.5 µM (inactive) | 17.9 µM (inactive) | 15.6 µM (inactive) | 20.9 µM (inactive) | 13.9 µM (inactive)
CCc1n[nH]c(=O)n1-n1c(C)ccc1C | > 100 µM (inactive) | > 100 µM (inactive) | > 100 µM (inactive) | > 100 µM (inactive) | > 100 µM (inactive) | > 100 µM (inactive) | > 100 µM (inactive) | > 100 µM (inactive) | > 100 µM (inactive) | > 100 µM (inactive) | > 100 µM (inactive) | > 100 µM (inactive) | > 100 µM (inactive) | > 100 µM (inactive) | > 100 µM (inactive) | > 100 µM (inactive) | > 100 µM (inactive) | > 100 µM (inactive) | 
O=C(c1ccco1)C1CC(c2ccc3ccccc3c2O)=NN1c1ccc([N+](=O)[O-])cc1[N+](=O)[O-] (stereo unspecified) | 33.5 µM (inactive) | 24.5 µM (inactive) | 15.7 µM (inactive) |  | 18.1 µM (inactive) | 29.7 µM (inactive) | 1.01 µM (active) | 40.6 µM (inactive) | 14 µM (inactive) | 10.5 µM (inactive) | 16 µM (inactive) | 30 µM (inactive) | 32.8 µM (inactive) | 13.7 µM (inactive) | 28.4 µM (inactive) | 3.95 µM (inactive) | 17.6 µM (inactive) | 20.5 µM (inactive) | 12.4 µM (inactive)
CC(C#N)N(CCc1ccccc1)C(=O)c1ccccc1 (stereo unspecified) | > 100 µM (inactive) | > 100 µM (inactive) | > 100 µM (inactive) | > 100 µM (inactive) | > 100 µM (inactive) | > 100 µM (inactive) | > 100 µM (inactive) |  | > 100 µM (inactive) |  | > 100 µM (inactive) | > 100 µM (inactive) | > 100 µM (inactive) | > 100 µM (inactive) | > 100 µM (inactive) | > 100 µM (inactive) | > 100 µM (inactive) | > 100 µM (inactive) | 
COC(=O)Cc1c([C@@H]2Nc3ccccc3[C@H]2CC(=O)OC)[nH]c2ccccc12 | 47.2 µM (inactive) | 17.7 µM (inactive) | 41.3 µM (inactive) | 11 µM (inactive) | 22.8 µM (inactive) | 18.5 µM (inactive) | 8.02 µM (inactive) | 28.3 µM (inactive) | 9.79 µM (inactive) | 21.1 µM (inactive) | 27.8 µM (inactive) | 44.2 µM (inactive) | 30.3 µM (inactive) | 48.5 µM (inactive) | 20.4 µM (inactive) |  | 13.9 µM (inactive) | 36.6 µM (inactive) | 45.8 µM (inactive)
Cc1ccc(S(=O)(=O)n2cncc2CO)cc1 | > 100 µM (inactive) | > 100 µM (inactive) | > 100 µM (inactive) | > 100 µM (inactive) | > 100 µM (inactive) | > 100 µM (inactive) | > 100 µM (inactive) | > 100 µM (inactive) | > 100 µM (inactive) | > 100 µM (inactive) | > 100 µM (inactive) | > 100 µM (inactive) | > 100 µM (inactive) | > 100 µM (inactive) | > 100 µM (inactive) | > 100 µM (inactive) | > 100 µM (inactive) | > 100 µM (inactive) | 
O=C(O)c1ccccc1/C=C1\Cc2ccc3c(c2C1=O)CCCC3 |  | 31.3 µM (inactive) | 34.1 µM (inactive) | 38 µM (inactive) | 31.6 µM (inactive) | 41 µM (inactive) | 26.8 µM (inactive) | 39.2 µM (inactive) | 31 µM (inactive) | 32 µM (inactive) | 73.1 µM (inactive) | 75.2 µM (inactive) | 26.2 µM (inactive) | 50.6 µM (inactive) | 44.7 µM (inactive) | 39.8 µM (inactive) | 21.1 µM (inactive) | 36.5 µM (inactive) | 14.3 µM (inactive)
CCCCC1=CC1(C#N)[N+](=O)[O-] (stereo unspecified) | > 100 µM (inactive) |  | > 100 µM (inactive) | 22.3 µM (inactive) | > 100 µM (inactive) | 40.6 µM (inactive) | 33.3 µM (inactive) | > 100 µM (inactive) | > 100 µM (inactive) | > 100 µM (inactive) | > 100 µM (inactive) | > 100 µM (inactive) | 90.8 µM (inactive) | > 100 µM (inactive) | > 100 µM (inactive) | > 100 µM (inactive) | 60.3 µM (inactive) | > 100 µM (inactive) | 48.9 µM (inactive)
CCCSc1cc(Cl)c(C)cc1S(=O)(=O)n1ccnc1O | > 100 µM (inactive) | > 100 µM (inactive) | > 100 µM (inactive) | > 100 µM (inactive) | > 100 µM (inactive) | > 100 µM (inactive) | > 100 µM (inactive) | > 100 µM (inactive) | > 100 µM (inactive) | > 100 µM (inactive) | > 100 µM (inactive) | > 100 µM (inactive) | > 100 µM (inactive) | > 100 µM (inactive) | > 100 µM (inactive) | > 100 µM (inactive) | > 100 µM (inactive) | > 100 µM (inactive) | 
O=C(NCCN1CCCCC1)c1ccc(Br)cc1 | > 100 µM (inactive) | > 100 µM (inactive) | > 100 µM (inactive) | > 100 µM (inactive) | > 100 µM (inactive) | > 100 µM (inactive) | > 100 µM (inactive) | > 100 µM (inactive) | > 100 µM (inactive) | > 100 µM (inactive) | > 100 µM (inactive) | > 100 µM (inactive) | > 100 µM (inactive) | > 100 µM (inactive) | > 100 µM (inactive) | > 100 µM (inactive) |  | > 100 µM (inactive) | > 100 µM (inactive)
CN(C)c1ccc(/C=C/C(=O)N[C@@H]2C(=O)N3[C@@H]2SC(C)(C)[C@@H]3C(=O)O)cc1 | > 100 µM (inactive) | > 100 µM (inactive) | > 100 µM (inactive) | > 100 µM (inactive) | > 100 µM (inactive) | > 100 µM (inactive) | > 100 µM (inactive) | > 100 µM (inactive) |  | > 100 µM (inactive) | > 100 µM (inactive) | > 100 µM (inactive) | > 100 µM (inactive) | > 100 µM (inactive) | > 100 µM (inactive) | > 100 µM (inactive) | > 100 µM (inactive) | > 100 µM (inactive) | 
Nc1ccnc2c1ncn2[C@H]1C[C@H](O)[C@@H](CO)O1 | > 100 µM (inactive) | > 100 µM (inactive) | > 100 µM (inactive) |  | > 100 µM (inactive) | > 100 µM (inactive) | > 100 µM (inactive) | > 100 µM (inactive) | > 100 µM (inactive) | > 100 µM (inactive) | > 100 µM (inactive) | > 100 µM (inactive) | > 100 µM (inactive) | > 100 µM (inactive) | > 100 µM (inactive) | > 100 µM (inactive) | > 100 µM (inactive) | > 100 µM (inactive) | > 100 µM (inactive)
